Data: the supplement of paper PMC5908809

Tests used:
[1] = test system: normal NK cells expanded with K562-aAPC; test: percent inhibition of viability; higher = more inhibition; conditions: 72 h, IL-2 2.5 ng/mL
Experimental: (§1)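 Drug sensitivity and resistance testing on K562-aAPC-expanded normal NK cells: 5 concentrations (10-fold steps over a 10,000-fold range), 72 h at 37 °C, viability by CellTiter-Glo normalised to DMSO and benzethonium chloride controls; DSS from the fitted curve.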

[2] = test system: normal NK cells expanded with K562-aAPC; test: drug sensitivity score (DSS) (DSS units); higher = more sensitive; extreme values may be limits of the assay; conditions: 72 h; IL-2 2.5 ng/mL
Experimental: as §1

[3] = test system: normal primary NK cells, pool 1 (3 donors) (IL-2 2.5 ng/mL); test: percent inhibition of viability; higher = more inhibition; conditions: 72 h
[4] = test system: YT (IL-2 2.5 ng/mL); test: as above; conditions: 72 h
[5] = test system: KAI3 (IL-2 2.5 ng/mL); test: as above; conditions: 72 h
[6] = test system: IMC-1 (IL-2 20 ng/mL); test: as above; conditions: 72 h
[7] = test system: normal primary NK cells, pool 3 (3 donors) (IL-2 2.5 ng/mL); test: as above; conditions: 72 h
[8] = test system: KHYG-1 (IL-2 2.5 ng/mL); test: as above; conditions: 72 h
[9] = test system: NKL (IL-2 2.5 ng/mL); test: as above; conditions: 72 h
[10] = test system: normal primary NK cells, pool 2 (3 donors) (IL-2 2.5 ng/mL); test: as above; conditions: 72 h
[11] = test system: NK-YS (IL-2 2.5 ng/mL); test: as above; conditions: 72 h
[12] = test system: SNK-6 (IL-2 2.5 ng/mL); test: as above; conditions: 72 h
[13] = test system: normal primary NK cells, pool 1 (3 donors), resting (IL-2 0 ng/mL); test: as above; conditions: 72 h
[14] = test system: NK-92 (IL-2 2.5 ng/mL); test: as above; conditions: 72 h
[15] = test system: DERL-7 (IL-2 2.5 ng/mL); test: as above; conditions: 72 h
[16] = test system: normal primary NK cells, pool 1 (3 donors) (IL-2 2.5 ng/mL); test: drug sensitivity score (DSS) (DSS units); higher = more sensitive; extreme values may be limits of the assay; conditions: 72 h
[17] = test system: YT (IL-2 2.5 ng/mL); test: as above; conditions: 72 h
[18] = test system: KAI3 (IL-2 2.5 ng/mL); test: as above; conditions: 72 h
[19] = test system: IMC-1 (IL-2 20 ng/mL); test: as above; conditions: 72 h
[20] = test system: normal primary NK cells, pool 3 (3 donors) (IL-2 2.5 ng/mL); test: as above; conditions: 72 h
[21] = test system: KHYG-1 (IL-2 2.5 ng/mL); test: as above; conditions: 72 h
[22] = test system: NKL (IL-2 2.5 ng/mL); test: as above; conditions: 72 h
[23] = test system: normal primary NK cells, pool 2 (3 donors) (IL-2 2.5 ng/mL); test: as above; conditions: 72 h
[24] = test system: NK-YS (IL-2 2.5 ng/mL); test: as above; conditions: 72 h
[25] = test system: SNK-6 (IL-2 2.5 ng/mL); test: as above; conditions: 72 h
[26] = test system: normal primary NK cells, pool 1 (3 donors), resting (IL-2 0 ng/mL); test: as above; conditions: 72 h
[27] = test system: NK-92 (IL-2 2.5 ng/mL); test: as above; conditions: 72 h
[28] = test system: DERL-7 (IL-2 2.5 ng/mL); test: as above; conditions: 72 h

N#CCNC(=O)c1ccc(-c2ccnc(Nc3ccc(N4CCOCC4)cc3)n2)cc1 [Momelotinib] (max concentration tested 10000 nM)
percent inhibition of viability [%]
Conditions	1 nM	10 nM	100 nM	1000 nM	10000 nM
[1]	-1.5	4.78	16.6	72	96.9
[3]	-14.4	-4.36	20.3	65.5	70.3
[4]	-0.29	-0.45	5.77	38.1	86.3
[5]	5.39	5.27	21.2	79.2	85.8
[6]	-3.83	-4.31	-6.56	18.6	101
[7]	0.52	-6.13	-0.97	43.2	86.9
[8]	-1.96	-4.26	19.9	103	102
[9]	-4.28	-2.44	28.4	79.3	88
[10]	-6.15	-4.46	2.38	54.3	91.2
[11]	-3.04	-5.27	11.4	54.4	98.9
[12]	23.1	10.8	3.39	52.2	96
[13]	-6.11	-14.1	3.47	15.8	14.3
[14]	-4.89	7.75	12.7	57.3	73.3
[15]	3.73	4.25	15.9	75.2	100

Conditions	drug sensitivity score
[2]	15.6
[16]	14.8
[17]	9.23
[18]	17.1
[19]	8.56
[20]	10.2
[21]	21.2
[22]	18.1
[23]	11.5
[24]	12.2
[25]	11.5
[26]	1.97
[27]	12.3
[28]	16

COc1ccc(Cl)c(Nc2nc3ccccc3nc2NS(=O)(=O)c2cccc(NC(=O)C(C)(C)N)c2)c1 [Pilaralisib] (max concentration tested 2500 nM)
percent inhibition of viability [%]
Conditions	0.25 nM	2.5 nM	25 nM	250 nM	2500 nM
[1]	-5.86	-9.89	-4.45	9.09	13
[3]	-2.73	-2.17	6.91	0.33	11.2
[4]	-4.96	-1.45	0.38	4.73	42
[5]	-9.17	-2.97	-7.92	0.18	28.9
[6]	-10.7	-5.75	-6.19	-0.79	3.28
[7]	-0.55	-0.41	8.73	-3.82	16
[8]	-8.15	-0.08	-3.78	6.51	17.4
[9]	-14.9	-17.9	-13.7	0.37	31.5
[10]	-6.75	-2.47	3.08	7.62	22.6
[11]	-9.63	-5.01	-7.74	-2.2	23.1
[12]	-25.1	-17.9	-11.5	-18.6	12.9
[13]	-1.59	14	8.93	7.44	20.9
[14]	1.29	7.6	3.1	33.3	47.3
[15]	4.27	-2.64	5.48	2.26	47.2

Conditions	drug sensitivity score
[2]	0.55
[16]	0.02
[17]	2.91
[18]	1.25
[19]	0
[20]	0.19
[21]	1.04
[22]	1.45
[23]	1.39
[24]	0.68
[25]	0.01
[26]	1.41
[27]	6.61
[28]	2.77
